Measured values from ChEMBL document CHEMBL1201862, “PubChem BioAssay data set” (2004).
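Each compound was tested at five concentrations against cells in 96-well plates for 48 hours. Abbreviation: GI50, concentration required for 50% inhibition of growth.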 Activity calls are given as the source filed them. Cut-off read from the data, not from the text of the source: active = GI50 up to about 1.1 µM and inactive = higher.

Assays:
Assay in all cases: growth of human tumour cells (NCI), 48 h
A498 = tested on: A498
K562 = tested on: K562
NCI-H23 = tested on: NCI-H23
RXF 393 = tested on: RXF 393
OVCAR-4 = tested on: OVCAR-4
ACHN = tested on: ACHN
SNB-75 = tested on: SNB-75
SF-539 = tested on: SF-539
IGROV-1 = tested on: IGROV-1
HCT-15 = tested on: HCT-15
UO-31 = tested on: UO-31
NCI-H522 = tested on: NCI-H522
HCC 2998 = tested on: HCC 2998
SK-MEL-5 = tested on: SK-MEL-5
TK-10 = tested on: TK-10
HT-29 = tested on: HT-29
HOP-62 = tested on: HOP-62
NCI-H226 = tested on: NCI-H226
A549 = tested on: A549
UACC-62 = tested on: UACC-62
SF-295 = tested on: SF-295
SF-268 = tested on: SF-268
HOP-92 = tested on: HOP-92
RPMI-8226 = tested on: RPMI-8226
COLO 205 = tested on: COLO 205
CAKI-1 = tested on: CAKI-1
U-251 = tested on: U-251
DLD-1 = tested on: DLD-1
NCI-H460 = tested on: NCI-H460
RXF 631 = tested on: RXF 631
HCT-116 = tested on: HCT-116
SNB-78 = tested on: SNB-78
DMS-114 = tested on: DMS-114
LXFL 529 = tested on: LXFL 529
CCRF-CEM = tested on: CCRF-CEM
M14 = tested on: M14
LOX IMVI = tested on: LOX IMVI
OVCAR-5 = tested on: OVCAR-5
MOLT-4 = tested on: MOLT-4
SNB-19 = tested on: SNB-19
EKVX = tested on: EKVX
SK-MEL-2 = tested on: SK-MEL-2
OVCAR-8 = tested on: OVCAR-8
DMS-273 = tested on: DMS-273
SR = tested on: SR
SK-OV-3 = tested on: SK-OV-3
M19-MEL = tested on: M19-MEL
HL-60 = tested on: HL-60
KM-20L2 = tested on: KM-20L2
SW-620 = tested on: SW-620
SK-MEL-28 = tested on: SK-MEL-28
SN12C = tested on: SN12C
KM12 = tested on: KM12
UACC-257 = tested on: UACC-257
786-0 = tested on: 786-0
XF498 = tested on: XF498
Malme-3M = tested on: Malme-3M
OVCAR-3 = tested on: OVCAR-3
HOP-18 = tested on: HOP-18

Structure (SMILES): O=C(Nc1ccc([N+](=O)[O-])cc1[N+](=O)[O-])C(=O)C(C(=O)c1ccc2ccccc2c1)C1OC(=O)c2ccccc21 (centres undefined)
- GI50 (A498): 17.6 µM (inactive)
- GI50 (K562): 14 µM (inactive)
- GI50 (NCI-H23): 7.29 µM (inactive)
- GI50 (RXF 393): 12 µM (inactive)
- GI50 (OVCAR-4): 12.8 µM (inactive)
- GI50 (ACHN): 25.6 µM (inactive)
- GI50 (SNB-75): 14 µM (inactive)
- GI50 (SF-539): 4.5 µM (inactive)
- GI50 (IGROV-1): 19.8 µM (inactive)
- GI50 (HCT-15): 15.9 µM
- GI50 (UO-31): 14 µM (inactive)
- GI50 (NCI-H522): 10.4 µM (inactive)
- GI50 (HCC 2998): 12.4 µM (inactive)
- GI50 (SK-MEL-5): 15.3 µM (inactive)
- GI50 (TK-10): 24.1 µM (inactive)
- GI50 (HT-29): 16.7 µM (inactive)
- GI50 (HOP-62): 22.4 µM (inactive)
- GI50 (NCI-H226): 2.69 µM (inactive)
- GI50 (A549): 25.5 µM (inactive)
- GI50 (UACC-62): 16.6 µM (inactive)
- GI50 (SF-295): 13.5 µM (inactive)
- GI50 (SF-268): 8.89 µM (inactive)
- GI50 (HOP-92): 17.8 µM (inactive)
- GI50 (RPMI-8226): 9.44 µM (inactive)
- GI50 (COLO 205): 15.8 µM (inactive)
- GI50 (CAKI-1): 21.7 µM (inactive)
- GI50 (U-251): 4.33 µM (inactive)
- GI50 (DLD-1): 27.5 µM (inactive)
- GI50 (NCI-H460): 13.2 µM (inactive)
- GI50 (RXF 631): 16.6 µM (inactive)
- GI50 (HCT-116): 17.6 µM (inactive)
- GI50 (SNB-78): 21.4 µM (inactive)
- GI50 (DMS-114): 17.9 µM (inactive)
- GI50 (LXFL 529): 10.5 µM (inactive)
- GI50 (CCRF-CEM): 9.51 µM (inactive)
- GI50 (M14): 15.9 µM (inactive)
- GI50 (LOX IMVI): 16.7 µM (inactive)
- GI50 (OVCAR-5): 20.2 µM (inactive)
- GI50 (MOLT-4): 2.95 µM (inactive)
- GI50 (SNB-19): 11.5 µM (inactive)
- GI50 (EKVX): 15.5 µM (inactive)
- GI50 (SK-MEL-2): 22.3 µM (inactive)
- GI50 (OVCAR-8): 10 µM (inactive)
- GI50 (DMS-273): 10.2 µM (inactive)
- GI50 (SR): 0.817 µM (active)
- GI50 (SK-OV-3): 13.5 µM (inactive)
- GI50 (M19-MEL): 12.2 µM (inactive)
- GI50 (HL-60): 12.3 µM (inactive)
- GI50 (KM-20L2): 25.1 µM (inactive)
- GI50 (SW-620): 13.2 µM (inactive)
- GI50 (SK-MEL-28): 20 µM (inactive)
- GI50 (SN12C): 17.8 µM (inactive)
- GI50 (KM12): 22.4 µM (inactive)
- GI50 (UACC-257): 24.4 µM (inactive)

Structure (SMILES): C/C(CC(=O)NCCc1ccccc1)=N\NS(=O)(=O)c1ccc(C)cc1
- GI50 (A498): > 100 µM (inactive)
- GI50 (K562): > 100 µM (inactive)
- GI50 (NCI-H23): > 100 µM (inactive)
- GI50 (RXF 393): > 100 µM (inactive)
- GI50 (ACHN): > 100 µM (inactive)
- GI50 (SNB-75): > 100 µM (inactive)
- GI50 (SF-539): > 100 µM (inactive)
- GI50 (IGROV-1): > 100 µM (inactive)
- GI50 (786-0): > 100 µM (inactive)
- GI50 (UO-31): > 100 µM (inactive)
- GI50 (NCI-H522): > 100 µM (inactive)
- GI50 (HCC 2998): > 100 µM (inactive)
- GI50 (SK-MEL-5): > 100 µM (inactive)
- GI50 (TK-10): > 100 µM (inactive)
- GI50 (HT-29): > 100 µM (inactive)
- GI50 (HOP-62): > 100 µM (inactive)
- GI50 (NCI-H226): > 100 µM (inactive)
- GI50 (A549): > 100 µM (inactive)
- GI50 (UACC-62): > 100 µM (inactive)
- GI50 (SF-295): > 100 µM (inactive)
- GI50 (SF-268): > 100 µM (inactive)
- GI50 (XF498): > 100 µM (inactive)
- GI50 (HOP-92): > 100 µM (inactive)
- GI50 (RPMI-8226): > 100 µM (inactive)
- GI50 (COLO 205): > 100 µM (inactive)
- GI50 (U-251): > 100 µM (inactive)
- GI50 (DLD-1): > 100 µM (inactive)
- GI50 (NCI-H460): > 100 µM (inactive)
- GI50 (RXF 631): > 100 µM (inactive)
- GI50 (HCT-116): > 100 µM (inactive)
- GI50 (SNB-78): > 100 µM (inactive)
- GI50 (DMS-114): > 100 µM (inactive)
- GI50 (LXFL 529): > 100 µM (inactive)
- GI50 (CCRF-CEM): > 100 µM (inactive)
- GI50 (M14): > 100 µM (inactive)
- GI50 (LOX IMVI): > 100 µM (inactive)
- GI50 (Malme-3M): > 100 µM (inactive)
- GI50 (OVCAR-5): > 100 µM (inactive)
- GI50 (OVCAR-3): > 100 µM (inactive)
- GI50 (MOLT-4): > 100 µM (inactive)
- GI50 (EKVX): > 100 µM (inactive)
- GI50 (SK-MEL-2): > 100 µM (inactive)
- GI50 (OVCAR-8): > 100 µM (inactive)
- GI50 (DMS-273): > 100 µM (inactive)
- GI50 (SK-OV-3): > 100 µM (inactive)
- GI50 (M19-MEL): > 100 µM (inactive)
- GI50 (HL-60): > 100 µM (inactive)
- GI50 (KM-20L2): > 100 µM (inactive)
- GI50 (SW-620): > 100 µM (inactive)
- GI50 (SK-MEL-28): > 100 µM (inactive)
- GI50 (KM12): > 100 µM (inactive)
- GI50 (UACC-257): > 100 µM (inactive)

Structure (SMILES): CC(C)(C)c1ccc2c(c1)S(=O)(=O)Nc1ccccc1NS(=O)(=O)c1cc(C(C)(C)C)ccc1OCCOCCOCCO2
- GI50 (A498): 52.5 µM (inactive)
- GI50 (K562): > 100 µM (inactive)
- GI50 (NCI-H23): > 100 µM (inactive)
- GI50 (RXF 393): 45.5 µM (inactive)
- GI50 (OVCAR-4): 20.9 µM (inactive)
- GI50 (ACHN): > 100 µM (inactive)
- GI50 (SNB-75): 39.2 µM (inactive)
- GI50 (SF-539): 40 µM (inactive)
- GI50 (IGROV-1): > 100 µM (inactive)
- GI50 (HCT-15): > 100 µM
- GI50 (786-0): > 100 µM (inactive)
- GI50 (UO-31): > 100 µM (inactive)
- GI50 (HCC 2998): > 100 µM (inactive)
- GI50 (SK-MEL-5): 93.8 µM (inactive)
- GI50 (TK-10): > 100 µM (inactive)
- GI50 (HT-29): > 100 µM (inactive)
- GI50 (HOP-62): > 100 µM (inactive)
- GI50 (NCI-H226): > 100 µM (inactive)
- GI50 (A549): > 100 µM (inactive)
- GI50 (UACC-62): 64.6 µM (inactive)
- GI50 (SF-295): 71 µM (inactive)
- GI50 (SF-268): 48.4 µM (inactive)
- GI50 (HOP-18): > 100 µM (inactive)
- GI50 (HOP-92): 85.3 µM (inactive)
- GI50 (COLO 205): > 100 µM (inactive)
- GI50 (CAKI-1): 97.9 µM (inactive)
- GI50 (U-251): 88.5 µM (inactive)
- GI50 (DLD-1): > 100 µM (inactive)
- GI50 (NCI-H460): > 100 µM (inactive)
- GI50 (RXF 631): 97.3 µM (inactive)
- GI50 (HCT-116): > 100 µM (inactive)
- GI50 (SNB-78): 59.8 µM (inactive)
- GI50 (DMS-114): > 100 µM (inactive)
- GI50 (CCRF-CEM): > 100 µM (inactive)
- GI50 (M14): > 100 µM (inactive)
- GI50 (LOX IMVI): > 100 µM (inactive)
- GI50 (Malme-3M): 33.5 µM (inactive)
- GI50 (OVCAR-5): > 100 µM (inactive)
- GI50 (OVCAR-3): > 100 µM (inactive)
- GI50 (MOLT-4): > 100 µM (inactive)
- GI50 (SNB-19): > 100 µM (inactive)
- GI50 (EKVX): 71.8 µM (inactive)
- GI50 (SK-MEL-2): > 100 µM (inactive)
- GI50 (OVCAR-8): 70 µM (inactive)
- GI50 (DMS-273): > 100 µM (inactive)
- GI50 (SK-OV-3): 81.1 µM (inactive)
- GI50 (M19-MEL): > 100 µM (inactive)
- GI50 (HL-60): > 100 µM (inactive)
- GI50 (SW-620): > 100 µM (inactive)
- GI50 (SK-MEL-28): > 100 µM (inactive)
- GI50 (SN12C): > 100 µM (inactive)
- GI50 (KM12): > 100 µM (inactive)
- GI50 (UACC-257): > 100 µM (inactive)
